Experimental data: patent US12076307B2, “Compositions for prevention or treatment of acute radiation syndrome and other radiation exposure” (priority 2017, dated 2024)
Where “and” joins values, the source holds several entries; their conditions need not be identical. Equal values may be shown once.

How the values were obtained:
CXCL8 = CXCL8 release in HaCaT cells treated with CM or rhHMGB1; format: cell-based, human; settings: rhHMGB1-treated cells
Description: An additional experiment was tested for assessing whether EC-18 treatment leads to early termination of the RIPK1/3-MLKL-mediated downstream necroptosis pathway. This was performed by using DAMP-containing conditioned media (CM) harvested from HaCaT cells, irradiated for 48 hrs, and analyzed after 2 or 72 hrs of EC-18 treatment. […] To further confirm that DAMPs in CM contribute to the activation of a necroptosis signaling pathway in a paracrine manner, recombinant human HMGB1 (rhHMGB1) was treated directly to the normal HaCaT cells. The rhHMGB1 elevated the phosphorylation of RIPK1/3 and MLKL after 2 hrs and subsequently released HMGB1 and HSP90 (FIGS. 35C-35D). To evaluate whether EC-18 mitigates the activation of RIPK1/3 and MLKL, 10 or 100 μg/mL of EC-18 was treated before the addition of CM or rhHMGB1. As a result, EC-18 lowered the phosphorylation of RIPK/3 and MLKL in both CM- and rhHMGB1-treated cells after 2 hrs. Release of HMGB1 and Hsp90 was also subsided by EC-18 after 72 hrs of post addition of CM or rhHMGB1 to the cells (FIGS. 35A-35D). TLR4-induced necroptosis signaling pathway caused by DAMP release produces cytokines, such as CXCL8, a chemotactic cytokine for neutrophils. As CXCL8 increases upon tissue damage, it was measured in cells treated with CM or rhHMGB1 as a measure of inflammation. CXCL8 of CM from cells treated with chemo and radiotherapy was used for this evaluation. […] Moreover, rhHMGB1 increased the production of CXCL8, modulated by EC-18.

Balb/c mice, 6.11 Gy TBI = test: Structural analog / calorie effect study: EC-18, PLH, olive oil in 6.11 Gy ARS model; format: in vivo, mouse; settings: 250 mg/kg daily
Description: Similarly, a structural analog efficacy study was conducted to identify the optimally functional molecule in the ARS murine model. The study was performed with the structural analog in which the acetyl group in EC-18 is replaced with a hydroxyl group (yielding palmitic linoleic hydroxyl glycerol, PLH) in 20 Balb/c mice (10 female and 10 male) per group. Mice were irradiated with TBI of 6.11Gy at day 0 and 250 mg/kg of EC-18 or PLH were given daily in-life.
The purpose of this study was to assess whether extra calories of EC-18 contribute to the enhanced survival in mice after exposure to a whole-body sublethal dose of γ-radiation. The study was performed with the structural analog in which the acetyl group in EC-18 is replaced with a hydroxyl group (yielding PLH) in a total of 100 BALB/c mice ([…]; 20 animals per study group) aged at 11 weeks. Mice were irradiated with TBI of 6.11Gy at day 0 and the same dosage (250 mg/kg) of EC-18, PLH, or olive oil (vehicle control) were given daily in-life.

[1] = Plasma radioactivity in rats after single oral or IV [14C]EC-18; format: in vivo, rat
Description: Male SD rats in the fed state were administered a single oral dose of 25, 50, or 100 mg/kg (vehicle: olive oil) or a single IV injection of 10 mg/kg of [^14C]EC-18 (EC-18 with radioactive isotope ^14C attached). Subsequently, the PK parameters were assessed. The concentration of radioactivity in rat plasma was measured by liquid scintillation counting (LSC) method after adding a scintillator (Clear-Sol I, Nacalai Tesque, Inc).

[2] = Plasma and lymphatic radioactivity after single oral [14C]EC-18 50 mg/kg in cannulated rats; format: in vivo, rat; settings: 50 mg/kg oral; for Radioactive Concentration in Plasma: n=3
Description: After inserting a cannula into the intestinal tract of male SD rats, the rats in fed condition were given a single dose of [^14C]EC-18 (oral dose of 50 mg/kg; vehicle: olive oil), and samples were collected after 0.5, 1, 2, 4, 6, and 8 hrs of administration. In parallel, lymphatic fluid samples were collected from conscious rats up to 8 hrs after administration. The radioactive concentrations in rat plasma and lymphatic fluid were measured by LSC after adding a scintillator, and the quantified data are shown in Table 19.

[3] = Whole blood and lymphatic radioactivity in rats after single oral [14C]EC-18 100 mg/kg; format: in vivo, rat; settings: 100 mg/kg oral, n=3; for Tmax: 100 mg/kg
Description: Male SD rats in fasted condition were administered a single dose of [^14C]EC-18 (oral dose of 100 mg/kg; vehicle: olive oil), and the radioactive concentration of the EC-18 was measured in whole blood samples at 0.5, 1, 2, 3, 4, 6, and 8 hrs after its administration. In parallel, male rats with a cannula inserted into the intestinal tract were administered a single dose of [^14C]EC-18 (oral dose of 100 mg/kg; vehicle: olive oil) and the concentration of EC-18-related radioactivity was measured in lymphatic fluid collected in conscious rats at 0.5, 1, 2, 3, 4, 6, and 8 hrs after its administration (FIG. 60). Then, the values of PK parameters were calculated using the quantitative data from whole blood and lymphatic fluid samples (Table 20). Following a single oral administration of [14C]EC-18, EC-18 concentration in the lymphatic fluid of rats was 10 to 53 times higher than that in whole blood (FIG. 60).

[4] = Whole-body autoradiography of rats after single oral [14C]EC-18; format: in vivo, rat; settings: 200 mg/kg oral, fasted
Description: Male albino rats in fasted conditions were administered a single dose of [^14C]EC-18 (oral dose of 200 mg/kg, vehicle: olive oil). The distribution and levels of radioactivity in the body were observed by whole-body autoradiography performed at 0.25, 1, 8, and 24 hrs after [^14C]EC-18 administration.

[5] = Pathway of excretion in rats after single oral [14C]EC-18; format: in vivo, rat; settings: 50 mg/kg oral
Description: To assess the routes of EC-18 excretion, male rats were administered a single dose of [^14C]EC-18 (oral dose of 50 mg/kg), after which, radioactive concentrations were measured in urine, feces, and exhaled air in the chamber of the animals for 168 hrs, and in the body after the autopsy.

[6] = Oral 25 mg/kg, plasma, fed, n=3
[7] = Oral 50 mg/kg, plasma, fed, n=3
[8] = Oral 100 mg/kg, plasma, fed, n=3

CC(C)S(=O)(=O)c1ccc2nccc(Nc3ccc4scnc4c3)c2c1 [GSK872, reference compound]
CXCL8 production (CXCL8): significant reduction

CN1C(=O)C(Cc2c[nH]c3ccccc23)NC1=S (centres unmarked) [Necrostin-1, reference compound]
CXCL8 production (CXCL8): significant reduction

CCCCC/C=C\C/C=C\CCCCCCCC(=O)OC(CO)COC(=O)CCCCCCCCCCCCCCC (centres unmarked) [PLH, palmitic linoleic hydroxyl glycerol, reference compound]
No. of mice that survived/total (Balb/c mice, 6.11 Gy TBI): 8/20 | Survival (Balb/c mice, 6.11 Gy TBI): 40% | Survival time of decedents, Mean ± SEM (Balb/c mice, 6.11 Gy TBI): 18.8 ± 1.6 days | Survival time of decedents, Median (Balb/c mice, 6.11 Gy TBI): 18 days | body weight loss induced by irradiation (Balb/c mice, 6.11 Gy TBI): aggravated body weight loss | survival compared to control group (Balb/c mice, 6.11 Gy TBI; 250 mg/kg): no statistically significant difference

CCCCC/C=C\C/C=C\CCCCCCCC(=O)OC(COC(C)=O)COC(=O)CCCCCCCCCCCCCCC (centres unmarked) [[^14C]EC-18]
AUClast ([1]; IV 10 mg/kg, plasma, fed, n=3): 215 ± 11 μg eq · hr/mL | Cmax (= C0) ([1]; IV 10 mg/kg, plasma, fed, n=3): 81.5 ± 3.4 μg eq/mL | t1/2 ([1]; IV 10 mg/kg, plasma, fed, n=3): 32.5 ± 1.2 h | F ([1]; Oral 25 mg/kg): 46% | AUClast [1, 6]: 224 ± 30 μg eq · hr/mL | Cmax [1, 6]: 7.2 ± 1.4 μg eq/mL | Tmax [1, 6]: 7.3 ± 5.0 h | t1/2 [1, 6]: 32.0 ± 3.1 h | F ([1]; Oral 50 mg/kg): 49% | AUClast [1, 7]: 473 ± 53 μg eq · hr/mL | Cmax [1, 7]: 16.6 ± 1.4 μg eq/mL | Tmax [1, 7]: 4.7 ± 2.3 h | t1/2 [1, 7]: 31.4 ± 1.8 h | F ([1]; Oral 100 mg/kg): 42% | AUClast [1, 8]: 830 ± 29 μg eq · hr/mL | Cmax [1, 8]: 29.6 ± 2.7 μg eq/mL | Tmax [1, 8]: 6.0 ± 3.5 h | t1/2 [1, 8]: 31.7 ± 3.5 h | Radioactive Concentration in Plasma ([2]; 0.5 hr): 0.096 ± 0.096 μg eq/mL | Radioactive Concentration in Plasma ([2]; 1 hr): 0.689 ± 0.796 μg eq/mL | Radioactive Concentration in Plasma ([2]; 2 hr): 2.09 ± 1.65 μg eq/mL | Radioactive Concentration in Plasma ([2]; 4 hr): 6.51 ± 2.21 μg eq/mL | Radioactive Concentration in Plasma ([2]; 6 hr): 10.2 ± 2.7 μg eq/mL | radioactive concentration in plasma as share of the administered dose ([2]; 8 h): approximately 28% | Radioactive Concentration in Plasma ([2]; 8 hr, 50 mg/kg): 17.5 μg eq/mL and 17.5 ± 4.9 μg eq/mL | AUC0-inf ([3]; Lymphatic Fluid): 53900 ± 39100 μg eq · hr/mL | AUC0-last ([3]; Lymphatic Fluid): 20400 ± 600 μg eq · hr/mL | Cmax ([3]; Lymphatic Fluid): 1210 ± 200 µg/mL | t1/2 ([3]; Lymphatic Fluid): 29.7 ± 28.1 h | Tmax ([3]; Lymphatic Fluid): 7.0 ± 2.0 h | AUC0-inf ([3]; Whole Blood, fasted): 819 ± 130 μg eq · hr/mL | AUC0-last ([3]; Whole Blood, fasted): 496 ± 69 μg eq · hr/mL | Cmax ([3]; Whole Blood, fasted): 38.8 ± 9.5 µg/mL | t1/2 ([3]; Whole Blood, fasted): 16.8 ± 1.9 h | Tmax ([3]; Whole Blood, fasted): 3.8 ± 2.9 h | site of highest radioactivity ([4]; 0.25 hr): stomach and small intestine | site of highest radioactivity ([4]; 1 hr): stomach and small intestine | site of highest radioactivity ([4]; 8 hrs): inner walls of the stomach | radioactivity distribution ([4]; 24 hrs): low radioactivity was observed in the liver | Cumulative Radioactive Concentration Relative to the Administered Dose, Cage-Cleaning Water ([5]; 0-24 hr): 0.0 ± 0.0% | Cumulative Radioactive Concentration Relative to the Administered Dose, Exhaled Air ([5]; 0-24 hr, 50 mg/kg): 71.0 ± 3.2% | Cumulative Radioactive Concentration Relative to the Administered Dose, Feces ([5]; 0-24 hr, 50 mg/kg): 3.0 ± 0.5% | Cumulative Radioactive Concentration Relative to the Administered Dose, Total ([5]; 0-24 hr, 50 mg/kg): 75.9 ± 3.2% | Cumulative Radioactive Concentration Relative to the Administered Dose, Urine ([5]; 0-24 hr, 50 mg/kg): 1.9 ± 0.3% | Cumulative Radioactive Concentration Relative to the Administered Dose, Cage-Cleaning Water ([5]; 0-48 hr): 0.1 ± 0.1% | Cumulative Radioactive Concentration Relative to the Administered Dose, Exhaled Air ([5]; 0-48 hr): 75.0 ± 3.8% | Cumulative Radioactive Concentration Relative to the Administered Dose, Feces ([5]; 0-48 hr): 3.6 ± 0.7% | Cumulative Radioactive Concentration Relative to the Administered Dose, Total ([5]; 0-48 hr): 80.7 ± 3.8% | Cumulative Radioactive Concentration Relative to the Administered Dose, Urine ([5]; 0-48 hr): 2.1 ± 0.3% | Cumulative Radioactive Concentration Relative to the Administered Dose, Cage-Cleaning Water ([5]; 0-72 hr): 0.1 ± 0.0% | Cumulative Radioactive Concentration Relative to the Administered Dose, Exhaled Air ([5]; 0-72 hr, 50 mg/kg): 76.7 ± 3.9% | Cumulative Radioactive Concentration Relative to the Administered Dose, Feces ([5]; 0-72 hr, 50 mg/kg): 3.8 ± 0.7% | Cumulative Radioactive Concentration Relative to the Administered Dose, Total ([5]; 0-72 hr, 50 mg/kg): 82.8 ± 3.9% | Cumulative Radioactive Concentration Relative to the Administered Dose, Urine ([5]; 0-72 hr, 50 mg/kg): 2.2 ± 0.3% | Cumulative Radioactive Concentration Relative to the Administered Dose, Cage-Cleaning Water ([5]; 0-96 hr): 0.1 ± 0.0% | Cumulative Radioactive Concentration Relative to the Administered Dose, Exhaled Air ([5]; 0-96 hr): 77.7 ± 3.9% | Cumulative Radioactive Concentration Relative to the Administered Dose, Feces ([5]; 0-96 hr): 3.9 ± 0.7% | Cumulative Radioactive Concentration Relative to the Administered Dose, Total ([5]; 0-96 hr): 84.0 ± 3.8% | Cumulative Radioactive Concentration Relative to the Administered Dose, Urine ([5]; 0-96 hr): 2.3 ± 0.4% | Cumulative Radioactive Concentration Relative to the Administered Dose, Cage-Cleaning Water ([5]; 0-120 hr): 0.1 ± 0.0% | Cumulative Radioactive Concentration Relative to the Administered Dose, Exhaled Air ([5]; 0-120 hr): 78.4 ± 3.9% | Cumulative Radioactive Concentration Relative to the Administered Dose, Feces ([5]; 0-120 hr): 4.0 ± 0.7% | Cumulative Radioactive Concentration Relative to the Administered Dose, Total ([5]; 0-120 hr): 84.8 ± 3.8% | Cumulative Radioactive Concentration Relative to the Administered Dose, Urine ([5]; 0-120 hr): 2.3 ± 0.4% | Cumulative Radioactive Concentration Relative to the Administered Dose, Cage-Cleaning Water ([5]; 0-144 hr): 0.1 ± 0.0% | Cumulative Radioactive Concentration Relative to the Administered Dose, Exhaled Air ([5]; 0-144 hr): 78.9 ± 3.9% | Cumulative Radioactive Concentration Relative to the Administered Dose, Feces ([5]; 0-144 hr): 4.1 ± 0.7% | Cumulative Radioactive Concentration Relative to the Administered Dose, Total ([5]; 0-144 hr): 85.4 ± 3.8% | Cumulative Radioactive Concentration Relative to the Administered Dose, Urine ([5]; 0-144 hr): 2.3 ± 0.4% | Cumulative Radioactive Concentration Relative to the Administered Dose, Cage-Cleaning Water ([5]; 0-168 hr): 0.1 ± 0.0% | Cumulative Radioactive Concentration Relative to the Administered Dose, Cadaver ([5]; 0-168 hr, 50 mg/kg): 9.8 ± 1.0% | Cumulative Radioactive Concentration Relative to the Administered Dose, Exhaled Air ([5]; 0-168 hr, 50 mg/kg): 79.3 ± 3.9% | Cumulative Radioactive Concentration Relative to the Administered Dose, Feces ([5]; 0-168 hr, 50 mg/kg): 4.2 ± 0.7% | Cumulative Radioactive Concentration Relative to the Administered Dose, Total ([5]; 0-168 hr, 50 mg/kg): 95.7 ± 3.3% | Cumulative Radioactive Concentration Relative to the Administered Dose, Urine ([5]; 0-168 hr, 50 mg/kg): 2.3 ± 0.4%
